Source: patent publication US12121505B2, “Fap-activated therapeutic agents, and uses related thereto” (BACH BIOSCIENCES, LLC, priority 2014, dated 2024)
Like-named read-outs stand apart in the source and are kept apart here.

Assays:
[1] = 100 μM prodrug, 37° C., 12 h
[2] = type: physicochemical
Experimental: • (i) LCMS of compound 3099DOX. • 0-3 min: 2% B; 3-20 min: 2-98% B; 20-25 min: 98% B. • Ran with 1.8 μm particle size column on the Old LCMS. • Calc.

[3] = target: T1, PREP (Homo sapiens, UniProt P48147); type: biochemical; conditions: 1.34×10^−8 M PREP, 37° C.
T1 sequence (P48147 1-710): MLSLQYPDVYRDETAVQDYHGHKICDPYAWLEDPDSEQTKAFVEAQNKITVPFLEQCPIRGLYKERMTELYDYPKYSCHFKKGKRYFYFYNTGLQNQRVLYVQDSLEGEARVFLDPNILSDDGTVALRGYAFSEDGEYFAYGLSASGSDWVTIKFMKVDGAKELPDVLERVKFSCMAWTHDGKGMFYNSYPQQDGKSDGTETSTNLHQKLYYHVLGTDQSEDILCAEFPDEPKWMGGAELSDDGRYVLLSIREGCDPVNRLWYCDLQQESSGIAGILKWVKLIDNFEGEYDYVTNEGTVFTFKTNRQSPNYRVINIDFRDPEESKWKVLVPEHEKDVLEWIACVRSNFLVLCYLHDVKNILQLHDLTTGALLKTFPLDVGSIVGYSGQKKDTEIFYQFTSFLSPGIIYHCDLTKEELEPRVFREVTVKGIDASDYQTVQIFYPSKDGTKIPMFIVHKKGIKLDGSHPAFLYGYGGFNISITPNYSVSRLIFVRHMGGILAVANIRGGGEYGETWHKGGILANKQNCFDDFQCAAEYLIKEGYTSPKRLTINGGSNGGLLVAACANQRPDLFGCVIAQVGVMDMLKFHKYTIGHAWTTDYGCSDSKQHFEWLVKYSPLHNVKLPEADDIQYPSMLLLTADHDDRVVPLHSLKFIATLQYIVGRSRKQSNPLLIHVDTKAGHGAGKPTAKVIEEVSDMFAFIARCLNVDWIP
Experimental: (§1) 3099DOX at various concentrations ranging from 8.5×10^−6 M to 6.9×10^−4 M was incubated with 1.34×10^−8 M FAP or PREP at 37° C., and released doxorubicin measured.

[4] = target: T2, FAP (Homo sapiens, UniProt Q12884); test: Rate of recombinant FAP activity on doxorubicin prodrugs; conditions: 37° C.
T2 sequence (Q12884 1-760): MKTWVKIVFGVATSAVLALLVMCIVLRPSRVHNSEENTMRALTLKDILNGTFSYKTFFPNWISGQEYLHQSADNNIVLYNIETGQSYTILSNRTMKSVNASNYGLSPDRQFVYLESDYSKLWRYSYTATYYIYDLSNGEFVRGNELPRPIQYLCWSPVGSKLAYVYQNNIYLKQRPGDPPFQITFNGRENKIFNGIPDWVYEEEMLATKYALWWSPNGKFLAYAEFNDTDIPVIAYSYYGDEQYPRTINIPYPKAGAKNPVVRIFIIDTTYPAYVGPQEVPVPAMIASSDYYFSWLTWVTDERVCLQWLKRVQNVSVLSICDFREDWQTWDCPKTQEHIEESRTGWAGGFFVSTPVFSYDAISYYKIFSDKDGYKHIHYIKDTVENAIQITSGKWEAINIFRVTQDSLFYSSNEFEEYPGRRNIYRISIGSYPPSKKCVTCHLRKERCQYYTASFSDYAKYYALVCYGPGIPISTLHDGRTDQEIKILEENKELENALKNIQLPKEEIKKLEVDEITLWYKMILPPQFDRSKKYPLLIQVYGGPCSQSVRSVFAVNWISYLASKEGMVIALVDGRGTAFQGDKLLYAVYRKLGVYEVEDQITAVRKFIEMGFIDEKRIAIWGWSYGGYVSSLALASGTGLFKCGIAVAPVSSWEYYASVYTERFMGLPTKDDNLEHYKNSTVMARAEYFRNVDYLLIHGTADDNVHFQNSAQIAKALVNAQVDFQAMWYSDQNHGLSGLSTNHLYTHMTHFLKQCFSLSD
Experimental: 3099DOX, z-GP-DOX, and 3996DOX were incubated in the presence of recombinant FAP at 37° C. for 24 hours. Released doxorubicin was measured at 1, 4, 12, and 24 hours.

[5] = target: T2, FAP; type: biochemical; conditions: 1.34×10^−8 M FAP, 37° C.
Experimental: Michaelis-Menten enzyme kinetics for FAP were measured using a SpectraMax M2e microplate reader (Molecular Devices, Sunnyvale, CA, USA). The assays were performed in FAP buffer (50 mM […], 140 mM NaCl, pH 7.5) at 25° C., and the fluorescence continuously monitored at excitation and emission wavelengths of 380 and 460 nm, respectively. Kinetic constants (kcat and Km) were determined using GP-AMC (Bachem, Torrance, CA, USA), Ac-(D)-AP-AFC (MP Biomedicals, Solon, OH, USA) and test article concentrations equivalent to 0.1-5 times their respective Km values, and with 5-10 nM enzyme. All assays were performed in triplicate, and the results were calculated with a nonlinear regression analysis, relying on a Michaelis-Menten curve fit using GraphPad software.
as §1

[6] = target: T1, PREP; test: Specificity of activation: 24 h digestion with PREP; type: biochemical; conditions: 100 μM prodrug, 37° C.
Experimental: (§2) Total doxorubicin was measured for each assay.

[7] = target: T2, FAP; test: Specificity of activation: 24 h digestion with FAP; type: biochemical; conditions: 100 μM prodrug, 37° C.
Experimental: as §2

[8] = target: T2, FAP; test: Selectivity of FAP over PREP (5057DOX digest, LCMS); type: biochemical; conditions: FIG. 14; 240 nM 5057DOX, 12, 24 or 48 nM enzyme, 37° C.
Experimental: Recombinant enzyme (FAP or PREP) was combined, at reaction concentration of 12 nM, 24 nM, or 48 nM, with 240 nM 5057DOX in FAP buffer (50 mM Tris-HCl, pH 7.4, 140 mM NaCl) and incubated at 37° C. Reactions were stopped at 0, 10, 20, or 30 minutes by addition of equal volume of 10 μM Val-boroPro (FAP inhibitor). Doxorubicin was measured by liquid chromatography/mass spectroscopy (LCMS).

[9] = target: T2, FAP; test: FAP digest of 5057DOX (kinetics); type: biochemical
[10] = target: DPPII (Homo sapiens, UniProt Q9UHL4); test: In vitro DPPII inhibition assay; type: biochemical
[11] = target: T2, FAP; test: In vitro FAP inhibition assay; type: biochemical
[12] = target: DPPIV (Homo sapiens, UniProt P27487); test: In vitro DPPIV inhibition assay; type: biochemical
[13] = target: T1, PREP; test: In vitro PREP inhibition assay; type: biochemical
[14] = target: DPP8 (Homo sapiens, UniProt Q6V1X1); test: In vitro DPP8 inhibition assay; type: biochemical
[15] = target: DPP9 (Homo sapiens, UniProt Q86TI2); test: In vitro DPP9 inhibition assay; type: biochemical
[16] = target: dipeptidyl peptidase IV (DPP IV) (Homo sapiens, UniProt P27487); test: Specificity of activation: 24 h digestion with DPP IV; type: biochemical; conditions: 100 μM prodrug, 37° C.
Experimental: as §2

Chain of DPP8 (Q6V1X1 whole entry, species assumed): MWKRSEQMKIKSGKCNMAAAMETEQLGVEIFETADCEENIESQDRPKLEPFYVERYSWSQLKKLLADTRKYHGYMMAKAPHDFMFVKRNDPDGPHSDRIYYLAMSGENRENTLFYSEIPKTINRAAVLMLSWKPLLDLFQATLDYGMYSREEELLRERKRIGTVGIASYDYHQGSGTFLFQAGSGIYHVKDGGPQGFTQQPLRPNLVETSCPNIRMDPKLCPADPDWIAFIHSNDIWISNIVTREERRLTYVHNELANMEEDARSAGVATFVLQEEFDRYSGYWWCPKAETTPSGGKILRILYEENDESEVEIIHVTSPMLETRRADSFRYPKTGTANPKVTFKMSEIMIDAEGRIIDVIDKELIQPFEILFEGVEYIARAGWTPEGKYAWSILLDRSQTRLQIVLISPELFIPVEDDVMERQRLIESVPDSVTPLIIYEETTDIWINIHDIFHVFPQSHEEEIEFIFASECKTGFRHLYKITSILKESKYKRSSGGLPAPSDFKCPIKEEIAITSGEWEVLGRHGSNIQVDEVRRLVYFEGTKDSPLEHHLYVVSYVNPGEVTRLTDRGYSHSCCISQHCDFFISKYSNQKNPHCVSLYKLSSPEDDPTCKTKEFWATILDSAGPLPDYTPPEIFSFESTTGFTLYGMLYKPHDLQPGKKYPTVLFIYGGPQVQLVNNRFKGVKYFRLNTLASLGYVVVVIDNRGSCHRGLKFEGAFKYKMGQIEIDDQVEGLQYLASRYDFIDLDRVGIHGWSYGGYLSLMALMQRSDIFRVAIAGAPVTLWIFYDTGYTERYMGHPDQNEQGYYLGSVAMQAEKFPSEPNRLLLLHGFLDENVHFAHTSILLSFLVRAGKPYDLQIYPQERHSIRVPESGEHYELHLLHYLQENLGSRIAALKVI
Chain of DPPIV (P27487 whole entry, species assumed): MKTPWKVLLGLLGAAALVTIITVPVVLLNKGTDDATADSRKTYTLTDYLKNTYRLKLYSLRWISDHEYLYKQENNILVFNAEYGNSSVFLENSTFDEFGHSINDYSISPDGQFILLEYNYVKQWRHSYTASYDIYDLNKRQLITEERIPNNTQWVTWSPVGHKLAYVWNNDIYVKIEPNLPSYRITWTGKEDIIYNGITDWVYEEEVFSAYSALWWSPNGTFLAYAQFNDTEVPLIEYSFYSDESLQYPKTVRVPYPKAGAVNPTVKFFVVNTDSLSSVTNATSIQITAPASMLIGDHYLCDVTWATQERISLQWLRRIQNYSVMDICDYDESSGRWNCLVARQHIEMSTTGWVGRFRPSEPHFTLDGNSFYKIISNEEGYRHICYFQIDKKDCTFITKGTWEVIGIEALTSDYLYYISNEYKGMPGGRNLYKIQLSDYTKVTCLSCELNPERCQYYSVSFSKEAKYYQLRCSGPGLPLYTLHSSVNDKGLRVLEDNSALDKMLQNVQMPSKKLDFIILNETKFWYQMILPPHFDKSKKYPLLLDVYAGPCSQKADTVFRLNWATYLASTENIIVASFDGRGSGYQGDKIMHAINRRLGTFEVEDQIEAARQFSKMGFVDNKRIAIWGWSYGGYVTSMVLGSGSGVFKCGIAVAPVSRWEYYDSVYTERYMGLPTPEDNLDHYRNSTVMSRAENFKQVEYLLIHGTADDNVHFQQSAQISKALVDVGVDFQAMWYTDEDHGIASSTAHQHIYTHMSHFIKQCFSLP
Chain of dipeptidyl peptidase IV (DPP IV) (P27487 whole entry, species assumed): as above
Chain of DPP9 (Q86TI2 whole entry, species assumed): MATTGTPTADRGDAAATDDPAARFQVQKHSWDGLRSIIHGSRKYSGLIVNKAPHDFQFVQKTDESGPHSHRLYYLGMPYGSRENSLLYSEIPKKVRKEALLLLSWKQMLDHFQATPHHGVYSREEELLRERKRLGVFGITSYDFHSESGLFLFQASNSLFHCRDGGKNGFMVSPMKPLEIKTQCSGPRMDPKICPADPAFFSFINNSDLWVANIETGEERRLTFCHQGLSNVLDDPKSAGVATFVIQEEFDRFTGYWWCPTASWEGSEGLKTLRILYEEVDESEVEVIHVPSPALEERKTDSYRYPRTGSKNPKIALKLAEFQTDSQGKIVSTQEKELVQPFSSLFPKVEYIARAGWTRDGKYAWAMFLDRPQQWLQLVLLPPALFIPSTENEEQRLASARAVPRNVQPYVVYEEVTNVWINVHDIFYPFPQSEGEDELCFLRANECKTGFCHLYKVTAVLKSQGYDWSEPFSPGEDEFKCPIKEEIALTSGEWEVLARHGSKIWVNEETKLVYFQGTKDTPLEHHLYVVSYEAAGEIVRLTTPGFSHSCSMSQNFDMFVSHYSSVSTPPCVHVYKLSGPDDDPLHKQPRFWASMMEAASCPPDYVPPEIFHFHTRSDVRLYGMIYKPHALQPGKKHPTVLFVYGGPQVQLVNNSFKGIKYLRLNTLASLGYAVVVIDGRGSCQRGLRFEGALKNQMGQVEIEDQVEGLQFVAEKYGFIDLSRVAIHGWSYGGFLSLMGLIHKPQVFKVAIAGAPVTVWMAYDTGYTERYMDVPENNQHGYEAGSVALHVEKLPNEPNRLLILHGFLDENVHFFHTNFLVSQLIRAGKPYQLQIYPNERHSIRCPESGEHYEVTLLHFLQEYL

COc1cccc2c1C(=O)c1c(O)c3c(c(O)c1C2=O)C[C@@](O)(C(=O)CO)C[C@@H]3O[C@H]1C[C@H](NC(=O)[C@@H]2CCCN2C(=O)[C@@H](C)NC(=O)c2ccncc2)[C@H](O)[C@H](C)O1 [Compound 3099DOX]
doxorubicin released in mouse muscle lysate [1]: released essentially no doxorubicin | Remaining Purity % ([2]; 22° C./72% RH, 1 month): 99.5% | Remaining Purity % ([2]; 22° C./72% RH, 1 week): 99.3% | Remaining Purity % ([2]; 22° C./72% RH, 2 month): 98.1% | Remaining Purity % ([2]; 22° C./72% RH, 3 month): 97.5% | Remaining Purity % ([2]; 22° C./72% RH, Day 0): 99.4% | Remaining Purity % ([2]; 40° C./75% RH, 1 month): 98.8% | Remaining Purity % ([2]; 40° C./75% RH, 1 week): 99.3% | Remaining Purity % ([2]; 40° C./75% RH, 2 month): 96.3% | Remaining Purity % ([2]; 40° C./75% RH, 3 month): 95.3% | Remaining Purity % ([2]; 40° C./75% RH, Day 0): 99.4% | activation with PREP [3]: essentially no activation with PREP | time to reach maximum free doxorubicin [4]: approximately 8 h | Km [5]: 11.2 µM | kcat(Vmax/[E]) [5]: 0.44 s⁻¹ | Vmax ([5]; released doxorubicin): 5.877e-09 M/s | doxorubicin released by PREP [6]: neither PREP nor DPP IV | doxorubicin released by FAP [7]: released from 3099DOX by FAP

COc1cccc2c1C(=O)c1c(O)c3c(c(O)c1C2=O)C[C@@](O)(C(=O)CO)C[C@@H]3O[C@H]1C[C@H](NC(=O)[C@@H]2CC(F)(F)CN2C(=O)CNC(=O)c2ccnc3ccccc23)[C@H](O)[C@H](C)O1 [Compound 5057DOX]
activation by FAP as compared to PREP [8]: selectively activated by FAP as compared to PREP | Km ([9]; assay 6, [FAP] 4.00 × 10^−9M): 11.1 µM | Vmax ([9]; assay 6, [FAP] 4.00 × 10^−9M): 5.19e-09 M/s | kcat(Vmax/[E]) ([9]; assay 6, [FAP] 4.00 × 10^−9M): Kcat(Vmax/[E]) 1.30 sec^−1 | Kcat ([9]; assay 7, [FAP] 1 nM): Kcat 0.98 sec^−1 | Km ([9]; assay 7, [FAP] 1 nM): 4.85 µM | Vmax ([9]; assay 7, [FAP] 1 nM, Dox standards, Daunorubicin internal standard): Vmax 9.80 × 10^−9M/sec

CC(C)[C@H](NC(=O)OCc1ccc(NC(=O)[C@@H]2CC(F)(F)CN2C(=O)CNC(=O)c2ccnc3ccccc23)cc1)C(=O)N1CCC[C@H]1B(O)O [Compound 5181]
IC50 [10]: 24 µM | IC50 [11]: 0.11 µM | IC50 [12]: 0.86 µM | IC50 [13]: 0.015 µM | IC50 [14]: 7.3 µM | IC50 [15]: 2.6 µM

COc1cccc2c1C(=O)c1c(O)c3c(c(O)c1C2=O)C[C@@](O)(C(=O)CO)C[C@@H]3O[C@H]1C[C@H](NC(=O)[C@@H]2CCCN2C(=O)CNC(=O)OCc2ccccc2)[C@H](O)[C@H](C)O1 [z-GP-DOX, reference compound]
doxorubicin released in mouse muscle lysate [1]: released a large amount of doxorubicin | doxorubicin released by PREP [6]: A similar amount of doxorubicin was released from z-GP-DOX by FAP and PREP | doxorubicin released by DPP IV [16]: essentially none by DPP IV | doxorubicin released by FAP [7]: A similar amount of doxorubicin was released from z-GP-DOX by FAP and PREP
